# Laboratory results reported in patent US20240043418A1, “1,3-DIHYDRO-2H-PYRROLO[3,4-C]PYRIDINE DERIVATIVES AS GABAA A5 RECEPTOR MODULATORS” (Richter Gedeon Nyrt., priority 2020, published 2024).
# How the values were obtained:
# [1] = molecular target: T1, human recombinant GABAA α5β3γ2 receptor (Homo sapiens (Human), UniProt P18507+P31644); assay: Receptor binding assay, [3H]Ro151788 displacement on membranes of HEK cells; details: [3H]Ro151788 0.5 nM, HEK cell membranes, 60 minutes at 4° C.; read-out: hGABAA α5 Ki
# Procedure: The GABAA α5β3γ2 protein used for the receptor binding assay was derived from membranes produced from HEK cells (Millipore CYL3073) expressing the human recombinant GABAA α5β3γ2 receptor. Cells were stored and cultured in-house according to the instructions provided by the vendor (Millipor). Cell pellet was homogenized in 10 times modified Krebs Henseleit buffer (membrane preparation buffer): 20 mM Tris, 120 mM NaCl, 100 mM KCl, 25 mM CaCl2 and 25 mM MgCl2 pH=7.4 at 4° C. using Ultra Turrax (Janke&Kunkel) maximal speed for 15 seconds. The homogenate was centrifuged at 40,000 g for 30 minutes at 4° C. Supernatant was discarded and the resulting pellet was washed in membrane preparation buffer. Pellet was resuspended in membrane preparation buffer and aliquots of 1.4 mL ampulles were stored at −70° C. until use.
# Receptor binding assays were performed in 96-well format in deep-well plates. For each 96-well plate one ampulle of membrane homogenate was thawed and diluted in binding buffer (50 mM Tris pH=7.4, 100 mM KCl) and 200 μL was dispensed into each well. Radioligand [^3H]Rol51788 (Perkin Elmer: NET757250UC) was prepared in binding buffer and added to each well in 50 μL volume to give final concentration of 0.5 nM. Test compounds in suitable concentration(s) were added in additional 50 μL. The final assay volume was 300 μL. Incubation was carried out for 60 minutes at 4° C. For non-specific binding 10 μM unlabeled diazepam was used. […] The plate was read in Microbeta (Perkin Elmer).
# The specific radioligand binding (SB) was defined as the difference between total binding (Tot) and the non-specific binding (NSB). Results are expressed as a percent inhibition of specific binding obtained in the presence of compound of interest.
# For IC50 and Ki determination a minimum of six drug concentrations in triplicate were used. […] Ki values (i.e. inhibition constants) were calculated using the Cheng-Prusoff equation Ki=IC50/[1+(L/KD)], where [L] is the radioligand concentration and KD the affinity of the labelled ligand for receptor. KD was determined from the Saturation analyses.
# [2] = molecular target: human recombinant GABAA α1β3γ2 receptor (Homo sapiens (Human), UniProt P14867+P18507); assay: Functional assay, QPatch automated patch clamp, modulation of GABA-evoked current; type: cell-based; details: tested at 10 μM; GABA 1 μM; HEK293 cells; percentage modulation of peak current
# Procedure: (§1) Human HEK293 cell lines expressing GABAA α1β3γ2 and GABAA α5β3γ2 receptors were used in functional assays using the QPatch automated patch clamp system.
# (§2) HEK293 cell lines stably expressing human recombinant GABAA α1β3γ2 receptor subunits (Millipore, CYL3073) or human recombinant GABAA α5β3γ2 receptor subunits (Millipore, CYL3053) were cultured in DMEM supplemented with 10% FBS (Gibco), passed two times per week and plated on Petri dishes previously coated with poly-d-lysine.
# (§3) Automated whole-cell patch clamp recordings were made from cells 2-4 days after plating. Cells were detached using trypsin/EDTA (Sigma) treatment (2 minutes in 0.25% trypsin at 37° C.), then, after centrifugation (125G, 3 min, 2×), resuspended in a serum-free based media (Gibco, CHO-S-SFM-II) containing 12.5 mM HEPES, 1×penicillin-streptomycin-amphotericin (SigmaMix) and soybean trypsin inhibitor (Sigma, 0.04 mg/ml).
# (§4) Cell suspension, as well as the extracellular solution (130 mM NaCl, 5 mM KCl, 5.1 mM HEPES, 4.9 mM HEPES-Na, 10 mM CaCl2), 2 mM MgCl2, 10 mM glucose and 0.1% DMSO, pH=7.35-7.4) and the intracellular solution (80 mM KCl, 50 mM KF, 36 mM KOH, 10 mM EGTA, 10 mM HEPES, 1.75 mM MgCl2, 0.5 mM CaCl2), 4 mM Na2ATP. 14 mM phosphocreatine, 50 U/ml creatine-phosphokinase, 0.3 mM GTP, pH=7.25-7.3) were added to the QPatch-HTX automated patch clamp system (Sophion) in single-cell mode at room temperature. Inward currents were evoked at a holding potential of −80 mV by 3-s-long applications of the control agonist GABA at sub-maximal effective concentration (1 μM) at 2-4-min intervals first in concentration-matched DMSO (0.1 or 0.3%) control solution for five times, then in the presence of the test compound for four times, finally in control solution again for three times (wash-out). At the end of the experiment 100 μM GABA was applied to saturate the GABA-response and to assess the efficacy of the control GABA application. Current signals were low-pass filtered at 100 Hz and recorded at a sampling rate of 1 kHz.
# (§5) The percentage modulation was calculated from the comparison of GAB A-evoked peak current amplitudes in the presence and absence of the test compound.
# [3] = molecular target: T1, human recombinant GABAA α5β3γ2 receptor; assay: as above; type: cell-based; details: tested at 10 μM; GABA 1 μM; HEK293 cells; percentage modulation of peak current
# Procedure: as §1, §2, §3, §4, §5
# T1 sequence (P31644 32-462): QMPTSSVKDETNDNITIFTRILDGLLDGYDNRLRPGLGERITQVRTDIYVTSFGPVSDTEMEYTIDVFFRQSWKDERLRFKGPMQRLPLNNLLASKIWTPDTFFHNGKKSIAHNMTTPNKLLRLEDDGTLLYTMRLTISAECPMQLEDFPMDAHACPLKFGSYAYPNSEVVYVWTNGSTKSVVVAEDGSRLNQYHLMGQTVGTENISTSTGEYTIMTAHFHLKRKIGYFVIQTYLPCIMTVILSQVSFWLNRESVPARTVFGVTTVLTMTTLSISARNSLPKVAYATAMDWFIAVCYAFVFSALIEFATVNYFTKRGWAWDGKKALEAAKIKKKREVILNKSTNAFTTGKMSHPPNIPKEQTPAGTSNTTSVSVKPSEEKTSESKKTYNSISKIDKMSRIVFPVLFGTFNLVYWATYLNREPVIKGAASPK
# T1 sequence (P18507 40-475): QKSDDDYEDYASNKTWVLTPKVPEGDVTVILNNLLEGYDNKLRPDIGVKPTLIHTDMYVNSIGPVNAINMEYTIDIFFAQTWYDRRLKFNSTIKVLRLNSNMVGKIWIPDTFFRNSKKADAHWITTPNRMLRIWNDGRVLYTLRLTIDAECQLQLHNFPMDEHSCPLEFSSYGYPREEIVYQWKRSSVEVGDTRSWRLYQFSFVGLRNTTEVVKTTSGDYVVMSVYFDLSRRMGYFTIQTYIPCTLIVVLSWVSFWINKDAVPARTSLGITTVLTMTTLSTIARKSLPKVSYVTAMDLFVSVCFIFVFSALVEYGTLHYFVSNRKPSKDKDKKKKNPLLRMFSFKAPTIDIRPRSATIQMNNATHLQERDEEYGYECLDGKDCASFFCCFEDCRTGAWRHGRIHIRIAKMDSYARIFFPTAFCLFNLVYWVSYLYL
# T1 sequence (P28472 26-473 partner): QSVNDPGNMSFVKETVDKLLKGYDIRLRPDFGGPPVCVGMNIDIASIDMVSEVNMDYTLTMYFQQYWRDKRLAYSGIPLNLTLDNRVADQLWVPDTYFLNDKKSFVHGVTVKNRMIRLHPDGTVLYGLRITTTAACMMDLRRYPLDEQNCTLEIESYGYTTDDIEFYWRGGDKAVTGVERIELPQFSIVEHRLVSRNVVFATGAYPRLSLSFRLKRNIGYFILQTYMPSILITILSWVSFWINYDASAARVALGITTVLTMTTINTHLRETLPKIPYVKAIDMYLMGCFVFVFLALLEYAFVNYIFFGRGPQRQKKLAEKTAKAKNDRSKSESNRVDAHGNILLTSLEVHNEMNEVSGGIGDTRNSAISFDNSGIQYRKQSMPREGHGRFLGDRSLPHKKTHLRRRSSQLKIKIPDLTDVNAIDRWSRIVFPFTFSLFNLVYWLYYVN
# Chain of human recombinant GABAA α1β3γ2 receptor (P14867 28-456): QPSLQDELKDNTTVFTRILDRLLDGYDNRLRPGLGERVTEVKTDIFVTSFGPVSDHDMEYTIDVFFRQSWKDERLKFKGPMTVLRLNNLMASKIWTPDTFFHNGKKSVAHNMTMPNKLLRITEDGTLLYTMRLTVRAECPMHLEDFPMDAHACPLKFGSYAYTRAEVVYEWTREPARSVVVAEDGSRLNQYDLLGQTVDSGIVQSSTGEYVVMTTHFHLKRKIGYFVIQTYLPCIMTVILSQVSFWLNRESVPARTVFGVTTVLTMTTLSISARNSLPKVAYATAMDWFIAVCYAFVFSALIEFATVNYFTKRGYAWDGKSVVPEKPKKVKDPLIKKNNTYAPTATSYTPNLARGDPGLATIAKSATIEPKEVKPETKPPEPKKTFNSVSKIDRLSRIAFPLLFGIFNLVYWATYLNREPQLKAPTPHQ
# Chain of human recombinant GABAA α1β3γ2 receptor (P18507 40-475): as the sequence (P18507 40-475) above
# Chain of human recombinant GABAA α1β3γ2 receptor (P28472 26-473 partner): as the sequence (P28472 26-473 partner) above
Structure (SMILES),Ki [1] [µM],hGABAA α1 efficacy [2] [%],hGABAA α5 efficacy [3] [%]
"CC(=O)N1Cc2cnc(OCc3c(-c4ccc(F)cc4)nnn3C)cc2C1 [Example 2, 1-(6-{[4-(4-fluorophenyl)-1-methyl-1H-1,2,3-triazol-5-yl]methoxy}-1,3-dihydro-2H-pyrrolo[3,4-c]pyridin-2-yl)ethanone]",0.032,−6,−47
"CC(=O)N1Cc2cnc(OCc3c(C)nnn3-c3ccc(F)cc3)cc2C1 [Example 1, 1-(6-{[1-(4-fluorophenyl)-4-methyl-1H-1,2,3-triazol-5-yl]methoxy}-1,3-dihydro-2H-pyrrolo[3,4-c]pyridin-2-yl)ethanone]",0.01,−2,−43
"CC(=O)N1Cc2cnc(OCc3c(-c4ccc(F)cc4)noc3C)cc2C1 [Example 3, 1-(6-{[3-(4-fluorophenyl)-5-methyl-1,2-oxazol-4-yl]methoxy}-1,3-dihydro-2H-pyrrolo[3,4-c]pyridin-2-yl)ethanone]",0.0009,13,−44
